{"source": "patent US20070184017A1", "about": "“Anti-aging treatment using copper and zinc compositions” (priority 2006, published 2007)", "test_system": "wrinkling on face", "test": "Gel composition applied to wrinkled face twice daily (Example 1)", "assay_type": "in vivo, human", "conditions": "person", "from_the_text": "A person is suffering from wrinkling on their face. A gel composition suitable for treatment of skin containing an effective amount of copper-zinc malonate active ingredient is routinely applied to their face twice daily."}
{"substance": "copper-zinc malonate", "values": [{"measurement": "wrinkling on face", "value": "reduced or eliminated"}]}
